Source: PMC5661649, “G-protein-coupled receptors mediate 14-3-3 signal transduction” (Signal Transduction and Targeted Therapy, 2016)
Like-named read-outs stand apart in the source and are kept apart here. Each block holds one compound with its values, some of them ahead of it.

Experiments:
[1] = molecular target: T1, α1AR (β-arrestin signaling) (Homo sapiens, UniProt P35348); assay: α1AR/β-arrestin-2 LinkLight assay; format: cell-based; conditions: α1A-TEV/β-arrestin-pLuc cells, Figure 3f; for EC50: adrenergic agonist panel, read-out: potency (rank order) in β-arrestin signaling
T1 construct: Full-length complementary DNAs of human GPCRs without stop codons were subcloned in frame with the tobacco etch virus (TEV) protease vector; expressed in transfected cells
T1 sequence (P35348 1-466): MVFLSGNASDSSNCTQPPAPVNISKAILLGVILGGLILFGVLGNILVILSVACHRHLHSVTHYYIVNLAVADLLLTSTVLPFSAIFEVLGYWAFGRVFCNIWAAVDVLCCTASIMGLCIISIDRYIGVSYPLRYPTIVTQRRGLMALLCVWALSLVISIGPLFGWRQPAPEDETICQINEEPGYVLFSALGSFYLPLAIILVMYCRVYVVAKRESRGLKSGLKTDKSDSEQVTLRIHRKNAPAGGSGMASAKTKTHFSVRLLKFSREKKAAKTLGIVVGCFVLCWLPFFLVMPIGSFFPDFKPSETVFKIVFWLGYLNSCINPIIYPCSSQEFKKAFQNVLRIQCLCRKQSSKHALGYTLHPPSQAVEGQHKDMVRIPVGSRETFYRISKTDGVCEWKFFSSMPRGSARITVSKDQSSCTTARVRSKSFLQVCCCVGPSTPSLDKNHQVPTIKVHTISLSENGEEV
Procedure: (§1) Multiple stable clones were selected for evaluation.
(§2) Cells were cultured overnight.
The GPCR/β-arrestin-2 LinkLight cells were seeded in white 384-well plates.

α1AR/14-3-3 interaction = assay: Kinase inhibitor response in α1AR/14-3-3ε LinkLight cells; format: cell-based, human; conditions: preincubation of α1AR/14-3-3 cells; Figure 3c
Raf-1/14-3-3 interaction = assay: Kinase inhibition of FBS-stimulated Raf-1/14-3-3 interaction in U2OS cells; format: cell-based; conditions: 7.5% FBS stimulation, Figure 4d
Procedure: as §2
The LinkLight cells were cultured in a white 384-well plate overnight. The culture medium was then replaced with serum-free DMEM.

[2] = system: Raf-1/14-3-3ε interaction; assay: GPCR agonist-induced Raf-1/14-3-3ε interaction LinkLight assay in U2OS cells; format: cell-based; conditions: U2OS stably co-expressing Raf-1-TEV and 14-3-3ε-pLuc, endogenous GPCRs; Figure 4a
Description: (§3) Full-length complementary DNAs of human GPCRs without stop codons were subcloned in frame with the tobacco etch virus (TEV) protease vector as previously described.[20],[21] The β-arrestin-2-permuted luciferase (β-arr-2-pLuc) expression plasmid was also previously described.[20],[21] 14-3-3ɛ and 14-3-3ζ full-length complementary DNAs without stop codons were used to replace β-arrestin-2 in the β-arr-2-pLuc for construction of the 14-3-3ɛ-pLuc and 14-3-3ζ-pLuc expression plasmids. […] Multiple stable clones were selected for evaluation.
The LinkLight cells stably expressing both GPCR-TEV and 14-3-3ε-pLuc were seeded into a 384-well white plate (Becton Dickinson, Franklin Lakes, NJ, USA) at 20 000 cells per well with 30 μl of regular medium. Cells were cultured overnight. The following day, the culture medium was replaced with 15 μl of serum-free DMEM, followed by the addition of 5 μl of compounds/drugs. Agonists were added as serial dilutions in serum-free DMEM from 10 mM dimethylsulfoxide stocks. For antagonist inhibition assays, the medium was replaced with 10 μl of serum-free DMEM. […] An equal volume of Bright-Glo (Promega, Madison, WI, USA), One-Glo (Promega), BriteLite (PerkinElmer, Billerica, MA, USA) or NeoLite (PerkinElmer) luciferase detection reagent was added for a 5-min incubation. The luminescence signals were determined using a luminescence plate reader (EnSpire or TopCount). Alternatively, after compound incubation, the culture medium was replaced with 10 μl of luciferase detection reagent, and luminescence signals were recorded.
The Raf-1/14-3-3ε LinkLight cells were seeded in white 384-well plates.

[3] = molecular target: T2, muscarinic cholinergic receptor 5 (CHRM5) (Homo sapiens, UniProt P08912); assay: CHRM5/14-3-3ε LinkLight assay, agonist mode; format: cell-based; conditions: stable CHRM5/14-3-3 LinkLight cells; Figure 2e
T2 construct: Full-length complementary DNAs of human GPCRs without stop codons were subcloned in frame with the tobacco etch virus (TEV) protease vector; expressed in transfected cells
T2 sequence (P08912 1-532): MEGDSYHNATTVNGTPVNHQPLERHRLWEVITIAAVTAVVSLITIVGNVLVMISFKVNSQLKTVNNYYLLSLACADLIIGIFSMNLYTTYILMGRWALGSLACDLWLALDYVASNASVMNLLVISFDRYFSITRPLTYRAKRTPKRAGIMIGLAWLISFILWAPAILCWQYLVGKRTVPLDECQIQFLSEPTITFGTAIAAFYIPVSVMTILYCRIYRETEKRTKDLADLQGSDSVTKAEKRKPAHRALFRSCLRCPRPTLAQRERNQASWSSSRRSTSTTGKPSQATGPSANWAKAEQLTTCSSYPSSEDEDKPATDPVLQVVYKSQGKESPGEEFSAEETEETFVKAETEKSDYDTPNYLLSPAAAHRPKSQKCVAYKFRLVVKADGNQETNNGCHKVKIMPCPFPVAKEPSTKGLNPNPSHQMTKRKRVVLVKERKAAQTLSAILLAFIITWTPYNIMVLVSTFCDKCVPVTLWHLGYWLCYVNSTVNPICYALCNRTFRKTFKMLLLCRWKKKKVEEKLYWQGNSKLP
Description: as §3
(§4) The LinkLight cells stably expressing both GPCR-TEV and 14-3-3ε-pLuc were seeded into a 384-well white plate (Becton Dickinson, Franklin Lakes, NJ, USA) at 20 000 cells per well with 30 μl of regular medium. Cells were cultured overnight. The following day, the culture medium was replaced with 15 μl of serum-free DMEM, followed by the addition of 5 μl of compounds/drugs. Agonists were added as serial dilutions in serum-free DMEM from 10 mM dimethylsulfoxide stocks. For antagonist inhibition assays, the medium was replaced with 10 μl of serum-free DMEM. […] The luminescence signals were determined using a luminescence plate reader (EnSpire or TopCount). Alternatively, after compound incubation, the culture medium was replaced with 10 μl of luciferase detection reagent, and luminescence signals were recorded. […]

[4] = molecular target: T3, Alpha adrenergic receptor 1A (α1AR) (Homo sapiens, UniProt P35348); assay: α1AR/14-3-3ε LinkLight assay (agonist-induced GPCR-mediated 14-3-3 signaling); format: cell-based
T3 construct: Full-length complementary DNAs of human GPCRs without stop codons were subcloned in frame with the tobacco etch virus (TEV) protease vector; expressed in transfected cells
T3 sequence (P35348 1-466): T1 sequence (P35348 1-466)
Procedure: as §1, §2

[5] = molecular target: T2, muscarinic cholinergic receptor 5 (CHRM5); assay: CHRM5/14-3-3ε LinkLight assay, antagonist mode; format: cell-based; conditions: preincubation with antagonist, then 3 μM carbachol; Figure 2f
Description: as §3, §4

[6] = molecular target: T4, β3 adrenergic receptor (ADRB3) (Homo sapiens, UniProt P13945); assay: ADRB3/14-3-3 LinkLight assay; format: cell-based; conditions: HEK293 stably expressing ADRB3-TEV and 14-3-3-pLuc; Figure 3d
T4 construct: Full-length complementary DNAs of human GPCRs without stop codons were subcloned in frame with the tobacco etch virus (TEV) protease vector; expressed in transfected cells
T4 sequence (P13945 whole entry): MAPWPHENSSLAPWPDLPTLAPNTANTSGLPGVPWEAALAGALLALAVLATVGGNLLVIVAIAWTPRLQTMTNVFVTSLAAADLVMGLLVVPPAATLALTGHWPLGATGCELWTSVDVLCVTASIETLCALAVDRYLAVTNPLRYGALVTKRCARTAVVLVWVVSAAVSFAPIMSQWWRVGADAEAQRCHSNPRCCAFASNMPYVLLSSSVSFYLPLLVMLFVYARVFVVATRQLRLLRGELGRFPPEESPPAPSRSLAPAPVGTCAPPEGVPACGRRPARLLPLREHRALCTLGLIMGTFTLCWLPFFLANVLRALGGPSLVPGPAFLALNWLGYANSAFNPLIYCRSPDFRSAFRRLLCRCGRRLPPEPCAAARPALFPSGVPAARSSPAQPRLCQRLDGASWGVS
Procedure: as §1, §2

[7] = α1A-TEV/14-3-3ε-pLuc cells, adrenergic agonist panel, Figure 3e, read-out: potency (rank order) in the 14-3-3 signaling assay

SMILES: C[C@H](Cc1ccc(OCC(=O)O)cc1)NC[C@H](O)c1cccc(Cl)c1 [BRL37344]
agonist behaviour in β-arrestin signaling versus 14-3-3 signaling [1]: much weaker agonists of β-arrestin signaling than of 14-3-3 signaling

SMILES: Cn1c(CNc2cccc(C(=O)NCc3ccccc3C(F)(F)F)c2)nnc1-c1ccncc1 [CMPD101]
inhibition of cirazoline-stimulated α1AR/14-3-3 signals (α1AR/14-3-3 interaction): did not inhibit

SMILES: O=C1Nc2ccc(I)cc2/C1=C/c1cc(Br)c(O)c(Br)c1 [GW5074]
inhibition of FBS-stimulated Raf-1/14-3-3 interaction signals (Raf-1/14-3-3 interaction): very weak inhibition activity

SMILES: O=S(=O)(NCCNC/C=C/c1ccc(Br)cc1)c1cccc2cnccc12 [H-89]
inhibition of cirazoline-stimulated α1AR/14-3-3 signals (α1AR/14-3-3 interaction): did not inhibit

SMILES: CCNC(=O)[C@H]1O[C@@H](n2cnc3c(N)ncnc32)[C@H](O)[C@@H]1O [NECA, 5'-N-ethylcarboxamidoadenosine]
Raf-1/14-3-3 interaction signals on stimulation with GPCR agonist [2]: concentration-dependent Raf-1/14-3-3 interaction signals

SMILES: O=C1CCCN1CC#CCN1CCCC1 [Oxotremorine, oxotremorine]
agonist behaviour for 14-3-3 signaling (full/partial) [3]: full agonists

EC50 [1]: 780 nM
EC50 [4, 7]: 55.2 nM
SMILES: Brc1c(NC2=NCCN2)ccc2nccnc12 [UK14304]

SMILES: CNC[C@H](O)c1ccc(O)c(O)c1 [adrenaline]
Raf-1/14-3-3 interaction signals on stimulation with GPCR agonist [2]: concentration-dependent Raf-1/14-3-3 interaction signals

SMILES: CN1[C@@H]2CC[C@H]1C[C@@H](OC(=O)C(CO)c1ccccc1)C2 (stereo partly shown) [atropine]
inhibition of agonist-induced CHRM5-mediated 14-3-3 signals [5]: antagonist concentration-dependent inhibition signals

agonist behaviour for 14-3-3 signaling (full/partial) [3]: full agonists
SMILES: C[N+](C)(C)CCOC(N)=O [carbachol]

EC50 [1]: 18.4 nM
ADRB3/14-3-3 interaction signals [6]: very weak signals even at 10 μM
EC50 ([4]; HEK293 stably co-expressing α1A-TEV/14-3-3ε-pLuc, Figure 2a, read-out: EC50, α1AR-mediated 14-3-3 signaling): 9.5 nM
EC50 [4, 7]: 1.72 nM
SMILES: c1ccc(C2CC2)c(OCC2=NCCN2)c1 [cirazoline]

SMILES: NCCc1ccc(O)c(O)c1 [dopamine]
Raf-1/14-3-3 interaction signals on stimulation with GPCR agonist [2]: concentration-dependent Raf-1/14-3-3 interaction signals

EC50 [1]: 1610 nM
ADRB3/14-3-3 interaction signals [6]: very weak signals even at 10 μM
EC50 [4, 7]: 12.4 nM
SMILES: N=C(N)NC(=O)Cc1c(Cl)cccc1Cl [guanfacine]

SMILES: CC(C)NCC(O)c1ccc(O)c(O)c1 (stereo not shown) [isoproterenol]
agonist behaviour in β-arrestin signaling versus 14-3-3 signaling [1]: much weaker agonists of β-arrestin signaling than of 14-3-3 signaling
ADRB3/14-3-3 interaction signals [6]: promoted ADRB3/14-3-3 interaction signals in a concentration-dependent manner

EC50 [1]: 318 nM
EC50 [4, 7]: 11.1 nM
SMILES: COc1ccc(OC)c(C(O)C(C)N)c1 (stereo not shown) [methoxamine]

SMILES: CN1[C@@H]2C[C@@H](OC(=O)[C@H](CO)c3ccccc3)C[C@H]1[C@@H]1O[C@@H]12 [scopolamine]
inhibition of agonist-induced CHRM5-mediated 14-3-3 signals [5]: antagonist concentration-dependent inhibition signals

SMILES: CCCS(=O)(=O)Nc1ccc(F)c(C(=O)c2c[nH]c3ncc(-c4ccc(Cl)cc4)cc23)c1F [vemurafenib]
inhibition of FBS-stimulated Raf-1/14-3-3 interaction signals (Raf-1/14-3-3 interaction): partial inhibition
